Reference: article PMC7115408 (European Journal of Medicinal Chemistry, 2014)
Entries after “also recorded” stand apart in the source; their conditions may differ. Like-named read-outs stand apart in the source and are kept apart here.

Tests used:
HCV = format: cell-based; conditions: read-out: HCV EC50
HBV = format: cell-based; conditions: read-out: HBV EC50; DNA virion assay
HSV-1 = test: In vitro antiviral screening, cytopathic effect and neutral red assays; format: cell-based; conditions: read-out: HSV-1 EC50
HSV-2 = test: as above; format: cell-based; conditions: read-out: HSV-2 EC50
SARS-CoV = test: microbe, parasite or virus in culture; format: cell-based, severe acute respiratory syndrome coronavirus (SARS-CoV); conditions: for EC50: read-out: SARS-CoV EC50
WNV = test: In vitro antiviral screening, visual and neutral red tests; format: cell-based, West Nile virus (WNV); conditions: read-out: WNV EC50
influenza B virus = test: Anti influenza screening, cytopathic effect and cytotoxicity assays; format: cell-based; conditions: read-out: Influenza Type-B EC50
influenza A virus H3N2 = test: as above; format: cell-based; conditions: read-out: Influenza Type-A H3N2 EC50
influenza A virus H5N1 = format: cell-based; conditions: for EC50: read-out: Influenza Type-A H5N1 EC50
influenza A virus H1N1 = test: Anti influenza screening, cytopathic effect and cytotoxicity assays; format: cell-based; conditions: read-out: Influenza Type-A H1N1 EC50
Bacillus subtilis = test: Well diffusion zone of inhibition, antibacterial; format: cell-based; conditions: for Antibacterial activity against B. subtilis (in words): zone of inhibition compared to Ampicillin; for zone of inhibition at 250 µg/disc: Bacillus subtilis, 48 h, read-out: Diameter of inhibition zone, Bacillus subtilis
Escherichia coli = test: Well diffusion zone of inhibition, antibacterial; format: cell-based; conditions: for zone of inhibition at 250 µg/disc: Escherichia coli, 48 h, read-out: Diameter of inhibition zone, Escherichia coli
Asperigillus niger = test: Well diffusion zone of inhibition, antifungal; format: cell-based; conditions: Aspergillus niger, read-out: Diameter of inhibition zone, Asperigillus niger

## 2-Oxo-4,6-di(2-thienyl)nicotinonitrile [Compound 1c]
HCV
  EC50: > 100 µM
HBV
  EC50: > 100 µM
HSV-1
  EC50: > 12 µM
HSV-2
  EC50: > 12 µM
SARS-CoV
  EC50: > 100 µM
WNV
  EC50: > 4600 nM
Influenza B virus
  EC50: > 100 µM
Influenza A virus H3N2
  EC50: 16 µM
Influenza A virus H5N1
  EC50: > 100 µM
Influenza A virus H1N1
  EC50: 32 µM

## 4-(4-Chlorophenyl)-2-oxo-6-(2-pyridyl)nicotinonitrile [Compound 1a]
HCV
  EC50: > 100 µM
HBV
  EC50: > 100 µM
HSV-1
  EC50: > 300 µM
HSV-2
  EC50: > 300 µM
SARS-CoV
  EC50: > 0.32 µM
WNV
  EC50: > 2200 nM
Influenza B virus
  EC50: > 36 µM
Influenza A virus H3N2
  EC50: > 2.6 µM
Influenza A virus H5N1
  EC50: > 100 µM
Influenza A virus H1N1
  EC50: 26 µM

## 4-(4-Isopropylphenyl)-2-oxo-6-(2-thienyl)nicotinonitrile [Compound 1b]
HCV
  EC50: > 100 µM
HBV
  EC50: > 100 µM
HSV-1
  EC50: > 300 µM
HSV-2
  EC50: > 300 µM
SARS-CoV
  EC50: > 26 µM
WNV
  EC50: > 2200 nM
Influenza B virus
  EC50: 46 µM
Influenza A virus H3N2
  EC50: 22 µM
Influenza A virus H5N1
  EC50: 32 µM

## CC(=O)OC[C@H]1O[C@@H](n2c(-c3ccccn3)cc(-c3ccc(Cl)cc3)c(C#N)c2=O)[C@H](OC(C)=O)[C@@H](OC(C)=O)[C@@H]1OC(C)=O [Compound 2aAc]
SARS-CoV
  Anti SARS-CoV activity (in words): slightly active by visual, but not neutral red test; also recorded: active
Influenza A virus H5N1
  Anti influenza A (H5N1) activity (in words): good and slightly active and active

## CC(C)c1ccc(-c2cc(-c3cccs3)n([C@@H]3O[C@H](CO)[C@@H](O)[C@H](O)[C@H]3O)c(=O)c2C#N)cc1 [Compound 2b, 1-(β-D-Glucopyranosyl)-4-(4-isopropylphenyl)-2-oxo-6-(2-thienyl)nicotinonitrile]
Bacillus subtilis
  Antibacterial activity against B. subtilis (in words): moderate antibacterial activity

## CC(=O)OC[C@H]1O[C@@H](n2c(-c3cccs3)cc(-c3ccc(C(C)C)cc3)c(C#N)c2=O)[C@H](OC(C)=O)[C@@H](OC(C)=O)[C@@H]1OC(C)=O [Compound 2bAc]
Bacillus subtilis
  Antibacterial activity against B. subtilis (in words): lower antibacterial activity

## N#Cc1c(-c2cccs2)cc(-c2cccs2)n([C@@H]2O[C@H](CO)[C@@H](O)[C@H](O)[C@H]2O)c1=O [Compound 2c, 1-(β-D-Glucopyranosyl)-2-oxo-4,6-di(2-thienyl)nicotinonitrile]
Bacillus subtilis
  Antibacterial activity against B. subtilis (in words): lower antibacterial activity
Escherichia coli
  zone of inhibition at 250 µg/disc: 0 mm
Asperigillus niger
  zone of inhibition at 250 µg/disc: 8 mm

## CC(=O)OC[C@H]1O[C@@H](n2c(-c3cccs3)cc(-c3cccs3)c(C#N)c2=O)[C@H](OC(C)=O)[C@@H](OC(C)=O)[C@@H]1OC(C)=O [Compound 2cAc]
Bacillus subtilis
  Antibacterial activity against B. subtilis (in words): lower antibacterial activity
SARS-CoV; Severe acute respiratory syndrome coronavirus
  EC50: > 32 µM

## N#Cc1c(-c2ccc(Cl)cc2)cc(-c2ccccn2)n([C@@H]2O[C@H](CO)[C@H](O)[C@H](O)[C@H]2O)c1=O [Compound 3a, 4-(4-Chlorophenyl)-1-(β-D-galactopyranosyl)-2-oxo-6-(2-pyridyl)nicotinonitrile]
Bacillus subtilis
  Antibacterial activity against B. subtilis (in words): lower antibacterial activity

## CC(=O)OC[C@H]1O[C@@H](n2c(-c3ccccn3)cc(-c3ccc(Cl)cc3)c(C#N)c2=O)[C@H](OC(C)=O)[C@@H](OC(C)=O)[C@H]1OC(C)=O [Compound 3aAc]
Bacillus subtilis
  zone of inhibition at 250 µg/disc: 1 mm
  Antibacterial activity against B. subtilis (in words): lower antibacterial activity

## CC(C)c1ccc(-c2cc(-c3cccs3)n([C@@H]3O[C@H](CO)[C@H](O)[C@H](O)[C@H]3O)c(=O)c2C#N)cc1 [Compound 3b, 1-(β-D-Galactopyranosyl)-4-(4-isopropylphenyl)-2-oxo-6-(2-thienyl)nicotinonitrile]
Bacillus subtilis
  Antibacterial activity against B. subtilis (in words): lower antibacterial activity
Asperigillus niger
  zone of inhibition at 250 µg/disc: 8 mm

## CC(=O)OC[C@H]1O[C@@H](n2c(-c3cccs3)cc(-c3ccc(C(C)C)cc3)c(C#N)c2=O)[C@H](OC(C)=O)[C@@H](OC(C)=O)[C@H]1OC(C)=O [Compound 3bAc]
Bacillus subtilis
  zone of inhibition at 250 µg/disc: 1 mm
  Antibacterial activity against B. subtilis (in words): lower antibacterial activity
Escherichia coli
  zone of inhibition at 250 µg/disc: 0 mm

## N#Cc1c(-c2cccs2)cc(-c2cccs2)n([C@@H]2O[C@H](CO)[C@H](O)[C@H](O)[C@H]2O)c1=O [Compound 3c, 1-(β-D-Galactopyranosyl)-2-oxo-4,6-di(2-thienyl)-nicotinonitrile]
Bacillus subtilis
  Antibacterial activity against B. subtilis (in words): lower antibacterial activity

## N#Cc1c(-c2ccc(Cl)cc2)cc(-c2ccccn2)nc1OCCCCO [Compound 5, 4-(4-Chlorolphenyl)-2-(4-hydroxybutyloxy)-6-(2-pyridyl)nicotinonitrile]
Bacillus subtilis
  Antibacterial activity against B. subtilis (in words): lower antibacterial activity

## CC(=O)OCCCCOc1nc(-c2ccccn2)cc(-c2ccc(Cl)cc2)c1C#N [Compound 5Ac]
Bacillus subtilis
  Antibacterial activity against B. subtilis (in words): lower antibacterial activity

## CC(C)c1ccc(-c2cc(-c3cccs3)n(COCCO)c(=O)c2C#N)cc1 [Compound 7b, 1-[(2-Hydroxyethoxy)methyl]-4-(4-isopropylphenyl)-2-oxo-6-(2-thienyl)nicotinonitrile]
Bacillus subtilis
  Antibacterial activity against B. subtilis (in words): good activity
Escherichia coli; zone of inhibition
  Antibacterial activity against E. coli (in words): no activity

## CC(=O)OCCOCn1c(-c2cccs2)cc(-c2cccs2)c(C#N)c1=O [Compound 7cAc, 1-[(2-Acetoxyethoxy)methyl]-2-oxo-4,6-di(2-thienyl)nicotinonitrile]
Bacillus subtilis
  Antibacterial activity against B. subtilis (in words): moderate antibacterial activity

## N#Cc1c(-c2ccc(Cl)cc2)cc(-c2ccccn2)n(CCCO)c1=O [Compound 8a, 4-(4-Chlorolphenyl)-1-(3-hydroxypropyl)-2-oxo-6-(2-pyridyl)nicotinonitrile]
Bacillus subtilis
  Antibacterial activity against B. subtilis (in words): lower antibacterial activity

## C=CCOc1nc(-c2ccccn2)cc(-c2ccc(Cl)cc2)c1C#N [Compound 9, 2-(Allyloxy)-4-(4-chlorolphenyl)-6-(2-pyridyl)nicotinonitrile]
Bacillus subtilis
  Antibacterial activity against B. subtilis (in words): lower antibacterial activity
